Experimental data as given in US20120190579A1, “Functionalisation of Solid Substrates” (priority 2009, published 2012).

Target: T1, human somatostatin receptor 2 (Homo sapiens, UniProt P30874)
T1 construct: host or cells: HEK293 cells stably expressing Kir3.1 and Kir3.2A
Assay: Whole cell patch-clamp current recordings of bridged somatostatin analogues
Format: cell-based
Conditions: Pertussis toxin 100 ng/ml overnight; Tertiapin 100 nM
Experimental: HEK 293 cells expressing HKIR3.1/3.2 channel and human somatostatin receptor 2 were treated with these compounds, and whole cell patch-clamp current recordings taken.
HEK293 cells (human embryonic kidney cell line) stably expressing Kir3.1 and Kir3.2A channels were maintained in minimum essential medium supplemented with 10% foetal calf serum and 727 μg of G418 (Invitrogen), at 37° C. in humidified atmosphere (95% O2, 5% CO2). Cells were transiently transfected with SSTR2DNA (Missouri S&T cDNA Resource Center) along with pEGFP-N1 (Clontech) for visualization of transfected cells using epifluorescence. […]
Somatostatin and its analogues were dialysed for 24 h at 4° C. in buffer (50 mM sodium phosphate, pH 6.2) to remove the organic solvents. After dialysis the concentration was determined and the peptides stored at 4° C. […]
Whole cell patch-clamp current recordings were performed with an Axopatch 200B amplifier (Axon Instruments) using fire-polished pipettes with a resistance of 3-4 MΩ pulled from filamented borosilicated glass capillaries (Harvard Apparatus, 1.5 mm OD×1.17 mm ID). Data was acquired and analysed via a Digidata 1322A interface (Axon Instruments) and pCLAMP software (version 8.1, Axon Instruments). […] For each cell it was assessed if flow artifacts resulting from the pressure of drug application were present. […]

T1 sequence (P30874 whole entry): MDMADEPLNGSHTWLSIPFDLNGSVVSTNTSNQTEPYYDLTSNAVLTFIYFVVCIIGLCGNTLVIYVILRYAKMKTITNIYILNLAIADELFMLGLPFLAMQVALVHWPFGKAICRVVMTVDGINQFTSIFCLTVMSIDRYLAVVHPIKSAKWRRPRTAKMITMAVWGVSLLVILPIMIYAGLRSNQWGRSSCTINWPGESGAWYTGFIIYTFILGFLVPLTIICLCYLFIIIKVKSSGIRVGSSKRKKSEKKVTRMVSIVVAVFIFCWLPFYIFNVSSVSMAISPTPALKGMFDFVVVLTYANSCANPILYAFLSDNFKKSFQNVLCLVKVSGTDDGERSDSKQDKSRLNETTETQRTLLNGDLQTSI

| Compound | GIRK currents after treatment of cells with inhibitor (control) |
| --- | --- |
| Pertussis toxin | currents were largely inhibited |
| Tertiapin Q | currents were largely inhibited |

Target: neutravidin-coated agarose beads (Gallus gallus, UniProt P02701)
Assay: Pull-down and release of biotinylated protein adduct on neutravidin coated agarose beads
Conditions: release with β-mercaptoethanol (25 mM) 2 h at 37° C.; densitometry vs protein series dilution
Experimental: Protein/biotin-PEG-bromomaleimide adduct (200 μL) and unmodified model protein (200 μL) were washed independently with PBS buffer (3×500 μL) in a concentrator (Vivaspin, cut off 10 k) yielding protein solutions (300 μL) (In). For each of the protein solutions obtained, neutravidin-coated agarose beads (750 μL of 50% aqueous slurry) were washed with PBS (2×500 μL). Protein solution (300 μL) was then added to the beads and the mixture incubated at 4° C. for 30 mins. The mixture was centrifuged and the flow through (FT) collected. The beads were washed with PBS (2×500 μL) and both wash fractions collected (W1 and W2). Protein was released from the beads by incubation in PBS (300 μL) containing β-mercaptoethanol (25 mM) for 2 h at 37° C. The sample was centrifuged and the eluant (El) containing cleaved GrB2-SH2 domain L111C collected.
The amount of protein recovered was determined as 44% by comparison with a protein series dilution via densitometry. However, correcting for irreversibly physisorbed protein (determined using the unmodified protein control) the corrected recovery was 71%.

| Compound | amount of protein recovered [%] |
| --- | --- |
| GrB2-SH2 Domain L111C/Biotin-PEG-bromomaleimide Adduct | 44 |

Test system: not given
Assay: not given
Conditions: not given

| Compound | melting point [°C] |
| --- | --- |
| O=C(CCCC[C@@H]1SC[C@@H]2NC(=O)N[C@@H]21)NCCOCCOCCN1C(=O)C=C(Br)C1=O (stereo in doubt) | 95 to 98 |
| O=C(CCCC[C@@H]1SC[C@@H]2NC(=O)N[C@@H]21)NCCOCCOCCN1C(=O)C(Br)=C(Br)C1=O (stereo in doubt) | 100 to 102 |
| O=C1NC(=O)C(Sc2ccccn2)=C1Sc1ccccn1 | 70 to 72 |
| O=C1NC(=O)C(SCCO)=C1SCCO | 46 to 50 |
| O=C1NC(=O)C23NCC[C@H]2C[C@H]13 (some centres unmarked) | 110 to 113 |
| COC(=O)[C@H](CSC1=CC(=O)N(C)C1=O)NC(=O)OC(C)(C)C | 101 to 103 |
| CN1C(=O)C=C(Br)C1=O | 77 to 79 |
| O=C1CC2(SCCS2)C(=O)N1 | 112 to 115 |
| CC(C)(C)OC(=O)NCCOCCOCCNC(=O)CCCC[C@@H]1SC[C@@H]2NC(=O)N[C@@H]21 (stereo in doubt) | 106 to 108 |
| O=C1C=C(Br)C(=O)N1 | 148 to 151 |
| C=CCCNC1=CC(=O)NC1=O | 68 to 76 |
| COC(=O)[C@H](CSC1=CC(=O)NC1=O)NC(=O)OC(C)(C)C | 145 to 147 |
| O=C1NC(=O)C(I)=C1I | 238 to 241 |
| CCCCCCSC1=CC(=O)NC1=O | 99 to 101 |
